Results: US9925189B2, “Heterocyclic receptor agonists for the treatment of diabetes and metabolic disorders” (CymaBay Therapeutics, Inc., priority 2006, dated 2018)

Target: T1, IC-GPCR2 (Homo sapiens, UniProt Q8TDV5, S309L)
T1 construct: expressed in transfected cells
T1 sequence (Q8TDV5 1-335 S309L): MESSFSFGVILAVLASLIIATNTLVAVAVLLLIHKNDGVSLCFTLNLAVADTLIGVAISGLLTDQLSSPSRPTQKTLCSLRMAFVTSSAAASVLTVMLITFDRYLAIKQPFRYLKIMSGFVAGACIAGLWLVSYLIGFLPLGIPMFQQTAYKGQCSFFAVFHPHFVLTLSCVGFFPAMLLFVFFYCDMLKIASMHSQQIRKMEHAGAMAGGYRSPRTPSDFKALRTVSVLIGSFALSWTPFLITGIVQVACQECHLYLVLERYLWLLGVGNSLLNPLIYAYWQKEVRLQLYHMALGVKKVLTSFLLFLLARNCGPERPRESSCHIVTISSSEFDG
Test: Stimulation of cAMP in CHO cells stably expressing IC-GPCR2 (HTRF cAMP assay)
Assay type: cell-based
Set-up: key to Activity at 10 uM: *: no activity observed when tested at 10 micromolar but no higher concentrations were tested
Conditions: for activation at 10 µM: 0.5 h, 30 minutes, IC-GPCR2 stably expressing CHO cells, read-out: Activity at 10 uM (% change in FRET signal from DMSO control)
In short: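 CHO cells stably expressing IC-GPCR2, plated at 17500 cells/well, treated next day for 30 min in Ham's F12 with compounds at 6–8 concentrations from 0.00003 to 10 μM; parental CHO cells also screened. Intracellular cAMP read by HTRF competitive immunoassay (665/620 nm ratio). Activity given as % FRET change from DMSO control.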

| SMILES | activation at 10 µM | Activity at 10 uM (symbol entry) |
| --- | --- | --- |
| CC(C)OC(=O)N1CCC(c2nc(COc3ccc(S(C)(=O)=O)cc3)cs2)CC1 [Example 22, 4-[4-(4-Methanesulfonyl-phenoxymethyl)-thiazol-2-yl]-piperidine-1-carboxylic acid isopropyl ester] | 62% | – |
| CCOC(=O)c1cnc(N2CCC(c3nc(COc4ccc(-n5cnnn5)cc4)cs3)CC2)c(Cl)c1 [Example 197, 3′-Chloro-4-[4-(4-tetrazol-1-yl-phenoxymethyl)-thiazol-2-yl]-3,4,5,6-tetrahydro-2H-[1,2′]bipyridinyl-5′-carboxylic acid ethyl ester] | – | * |
| CC(C)(C)OC(=O)N1CCC(c2nc(COc3ccc(-n4cnnn4)cc3F)cs2)CC1 [Example 19, 4-[4-(2-Fluoro-4-tetrazol-1-yl-phenoxymethyl)-thiazol-2-yl]-piperidine-1-carboxylic acid tert-butyl ester] | 76% | – |
| Clc1ccc(N2CCC(c3nc(COc4ccc(-n5cnnn5)cc4)cs3)CC2)nn1 [Example 186, 3-Chloro-6-{4-[4-(4-tetrazol-1-yl-phenoxymethyl)-thiazol-2-yl]-piperidin-1-yl}-pyridazine] | 80% | – |
| O=C(OC1CCCCC1)N1CCC(c2nc(COc3ccc(-n4cnnn4)cc3)cs2)CC1 [Example 147, 4-[4-(4-Tetrazol-1-yl-phenoxymethyl)-thiazol-2-yl]-piperidine-1-carboxylic acid cyclohexyl ester] | 56% | – |
| CC(C)(C)OC(=O)N1CCC(c2nc(COc3ccc(-n4cnnn4)cc3)co2)CC1 [Example 121, 4-[4-(4-Tetrazol-1-yl-phenoxymethyl)-oxazol-2-yl]-piperidine-1-carboxylic acid tert-butyl ester] | 75% | – |
| CC(C)(C)OC(=O)N1CCC(c2nc(COc3ccc(-n4cccc4)cc3)cs2)CC1 [Example 113, 4-[4-(4-Pyrrol-1-yl-phenoxymethyl)-thiazol-2-yl]-piperidine-1-carboxylic acid tert-butyl ester] | 60% | – |
| Brc1cnc(N2CCC(c3nc(COc4ccc(-n5cnnn5)cc4)cs3)CC2)nc1 [Example 54, 5-Bromo-2-{4-[4-(4-tetrazol-1-yl-phenoxymethyl)-thiazol-2-yl]-piperidin-1-yl}-pyrimidine] | 58% | – |
| c1cc(-n2cnnn2)ccc1OCc1csc(C2CCN(c3nc(C4CC4)no3)CC2)n1 [Example 97, 1-(3-Cyclopropyl-[1,2,4]oxadiazol-5-yl)-4-[4-(4-tetrazol-1-yl-phenoxymethyl)-thiazol-2-yl]-piperidine] | 52% | – |
| CCCCCCOC(=O)N1CCC(c2nc(COc3ccc(-n4cnnn4)cc3)cs2)CC1 [Example 35, 4-[4-(4-Tetrazol-1-yl-phenoxymethyl)-thiazol-2-yl]-piperidine-1-carboxylic acid hexyl ester] | 64% | – |
| CCCCCOC(=O)N1CCC(c2nc(COc3ccc(-n4cnnn4)cc3)cs2)CC1 [Example 31, 4-[4-(4-Tetrazol-1-yl-phenoxymethyl)-thiazol-2-yl]-piperidine-1-carboxylic acid pentyl ester] | 88% | – |
| CCc1cnc(N2CCC(c3nc(COc4ccc(-n5cnnn5)cc4F)co3)CC2)nc1 [Example 170, 5-Ethyl-2-{4-[4-(2-fluoro-4-tetrazol-1-yl-phenoxymethyl)-oxazol-2-yl]-piperidin-1-yl}-pyrimidine] | 75% | – |
| CC(C)(C)OC(=O)N1CCC(c2nc(COc3ccc(N4CCOCC4)cc3)cs2)CC1 [Example 133, 4-[4-(4-Morpholin-4-yl-phenoxymethyl)-thiazol-2-yl]-piperidine-1-carboxylic acid tert-butyl ester] | 61% | – |
| CCc1cnc(N2CCC(c3nc(COc4ccc(S(C)(=O)=O)c(C)c4)cs3)CC2)nc1 [Example 14, 5-Ethyl-2-{4-[4-(4-methanesulfonyl-3-methyl-phenoxymethyl)-thiazol-2-yl]-piperidin-1-yl}-pyrimidine] | 84% | – |
